Measurements taken from patent US20230210096A1, “NON-HUMAN ANIMAL MODELS FOR AGING AND/OR NEURODEGENERATION” (University of Pittsburgh - Of the Commonwealth System of …, priority 2020, published 2023).

Key:
[1] = system: AANAT-KO differentiated N2a cells; experiment: Neurite length and number by βIII-tubulin staining; format: cell-based, mouse; settings: melatonin 5 µM
Procedure: (§1) N2a cells were obtained from ATCC and grown in DMEM/F12 medium with 10% FBS. AANAT-KO N2a cells were generated as described elsewhere (see, e.g., Suofu et al., PNAS 114:E7997-E8006 (2017)). N2a cells were differentiated by exposing them to 10 µM retinoic acid (RA) with 2% fetal bovine serum (FBS) for 8 days. Every alternate day, the culture medium of differentiating N2a cells was replaced with fresh medium containing 10 µM of RA. N2a cells were treated with 5 µM melatonin during differentiation to evaluate the effect of melatonin in WT and AANAT-KO N2a differentiated neurons. Fresh melatonin was added with RA every alternate day for 8 days. All experiments were performed in 8-day-differentiated neurons with or without melatonin. STHdh^Q7/Q7 (Q7) STHdh^Q111/Q111 (Q111) cells were grown in MEM culture medium with 10% FBS. Differentiation of Q7 and Q111 cells was induced by exposing cells to 10 ng/mL α-FGF, 250 µM 3-isobutyl-1-methylxanthine (IBMX), 200 nM phorbol 12-myristate 13-acetate (TPA), 50 µM forskolin and 10 µM dopamine for 2 days. AANAT-KO and littermate WT primary cerebro-cortical neuron (PCN) cultures were prepared from embryonic day (E) 15.5 embryos, as described elsewhere (see, e.g., Yano et al., Nature neuroscience 17:822 (2014)). […]

[2] = system: AANAT-KO primary cerebrocortical neurons (PCNs); experiment: Immunoblot of cGAS, STING, IRF3, caspase-1 in PCNs; format: cell-based, mouse; settings: AANAT-KO PCN, DIV21, melatonin 5 µM
Procedure: (§2) N2a cells were obtained from ATCC and grown in DMEM/F12 medium with 10% FBS. AANAT-KO N2a cells were generated as described elsewhere (see, e.g., Suofu et al., PNAS 114:E7997-E8006 (2017)). N2a cells were differentiated by exposing them to 10 µM retinoic acid (RA) with 2% fetal bovine serum (FBS) for 8 days. Every alternate day, the culture medium of differentiating N2a cells was replaced with fresh medium containing 10 µM of RA. N2a cells were treated with 5 µM melatonin during differentiation to evaluate the effect of melatonin in WT and AANAT-KO N2a differentiated neurons. Fresh melatonin was added with RA every alternate day for 8 days. All experiments were performed in 8-day-differentiated neurons with or without melatonin. […]
(§3) Samples (isolated mitochondria or whole-cell lysates) were cleared by centrifugation at 20,000 x g, equal amounts of protein were separated on Novex 4-12% gradient polyacrylamide gels (Invitrogen), and proteins transferred overnight onto 0.45 µm polyvinylidene difluoride (PVDF) membranes. The membranes were then incubated with the indicated primary antibodies overnight at 4° C. followed by incubation with secondary antibodies (Li-Cor) for 1 hour at room temperature, which were detected using the Odyssey CLx Infrared Imaging System (Li-Cor). Band intensities were quantified using Image Studio (Li-Cor).

[3] = system: AANAT-KO differentiated N2a cells; experiment: Immunoblot of inflammatory, caspase and synaptic markers in differentiated N2a cells; format: cell-based, mouse; settings: melatonin 5 µM
Procedure: (§4) N2a cells were obtained from ATCC and grown in DMEM/F12 medium with 10% FBS. AANAT-KO N2a cells were generated as described elsewhere (see, e.g., Suofu et al., PNAS 114:E7997-E8006 (2017)). N2a cells were differentiated by exposing them to 10 µM retinoic acid (RA) with 2% fetal bovine serum (FBS) for 8 days. Every alternate day, the culture medium of differentiating N2a cells was replaced with fresh medium containing 10 µM of RA. N2a cells were treated with 5 µM melatonin during differentiation to evaluate the effect of melatonin in WT and AANAT-KO N2a differentiated neurons. Fresh melatonin was added with RA every alternate day for 8 days. All experiments were performed in 8-day-differentiated neurons with or without melatonin. STHdh^Q7/Q7 (Q7) STHdh^Q111/Q111 (Q111) cells were grown in MEM culture medium with 10% FBS. Differentiation of Q7 and Q111 cells was induced by exposing cells to 10 ng/mL α-FGF, 250 µM 3-isobutyl-1-methylxanthine (IBMX), 200 nM phorbol 12-myristate 13-acetate (TPA), 50 µM forskolin and 10 µM dopamine for 2 days. AANAT-KO and littermate WT primary cerebro-cortical neuron (PCN) cultures were prepared from embryonic day (E) 15.5 embryos, as described elsewhere (see, e.g., Yano et al., Nature neuroscience 17:822 (2014)).
as §3

[4] = system: AANAT-KO primary cerebrocortical neurons (PCNs); experiment: qPCR of cytosolic mtDNA in PCNs; format: cell-based, mouse; settings: AANAT-KO PCN, DIV21, melatonin 5 µM
Procedure: as §1, with “days.” for “days. AANAT-KO and littermate WT primary cerebro-cortical neuron (PCN) cultures were prepared from embryonic day (E) 15.5 embryos, as described elsewhere (see, e.g., Yano et al., Nature neuroscience 17:822 (2014)).”
(§5) For measurement of mtDNA in cytosol in cells, cell fractions were prepared using Cell Fractionation Kit (Abeam). […] The copy number of mtDNA encoding cytochrome c oxidase 1 (mt-CO1), mt-Dloop1 and mt-Dloop3 was measured by quantitative real-time PCR with same volume of DNA solution. […]

[5] = system: AANAT-KO differentiated N2a cells; experiment: Cytokine ELISA in culture medium of differentiated N2a cells; format: cell-based, mouse; settings: melatonin 5 µM
Procedure: as §4

[6] = system: mitochondria of AANAT-KO differentiated N2a cells; experiment: Mitochondrial in vitro protein import assay (pOTC/mOTC); format: cell-based, mouse; settings: melatonin
Procedure: as §2, with “melatonin. STHdh^Q7/Q7 (Q7) STHdh^Q111/Q111 (Q111) cells were grown in MEM culture medium with 10% FBS.” for “melatonin.”
Ornithine transcarbamylase (OTC) precursor cDNA in pGEM-3Zf(+)-pOTC plasmid was transcribed and translated in vitro using the TNT Coupled Reticulocyte Lysate System (Promega) in the presence of [^35S] methionine (PerkinElmer). […] Mature OTC, which represents the cleaved protein after translocation into the mitochondrial matrix, was quantified by ImageJ (NIH). […]

[7] = system: AANAT-KO primary cerebrocortical neurons (PCNs); experiment: Cytokine ELISA in culture medium of PCNs; format: cell-based, mouse; settings: AANAT-KO PCN, DIV21, melatonin 5 µM
Procedure: as §4

[8] = system: AANAT-KO differentiated N2a cells; experiment: ROS (Mitosox) and MMP (JC-1/TMRM) in differentiated N2a cells; format: cell-based, mouse; settings: melatonin 5 µM
Procedure: as §2, with “melatonin. STHdh^Q7/Q7 (Q7) STHdh^Q111/Q111 (Q111) cells were grown in MEM culture medium with 10% FBS.” for “melatonin.”
(§6) ROS accumulation in cells was estimated by either DCFDA for total ROS or Mitosox for mitochondrial ROS. Cells were incubated in 20 µM DCFDA for 45 minutes or 5 µM Mitosox for 15 minutes at 37° C. and fluorescence was measured using plate reader or flowcytometry. […] Cells were incubated in 2 µg/mL JC-1 or 25 nM TMRM for 30 minutes at 37° C. and fluorescence were measured using plate reader or flowcytrometry. […]

[9] = system: AANAT-KO primary cerebrocortical neurons (PCNs); experiment: MMP (TMRM) and mitochondrial ROS (Mitosox) in PCNs; format: cell-based, mouse; settings: AANAT-KO PCN, DIV21, melatonin 5 µM in culture medium
Procedure: as §2, with “melatonin. STHdh^Q7/Q7 (Q7) STHdh^Q111/Q111 (Q111) cells were grown in MEM culture medium with 10% FBS.” for “melatonin.”
as §6

[10] = system: AANAT-KO differentiated N2a cells; experiment: qPCR of cytosolic mtDNA in differentiated N2a cells; format: cell-based, mouse; settings: melatonin 5 µM
Procedure: as §1, with “days.” for “days. AANAT-KO and littermate WT primary cerebro-cortical neuron (PCN) cultures were prepared from embryonic day (E) 15.5 embryos, as described elsewhere (see, e.g., Yano et al., Nature neuroscience 17:822 (2014)).”
as §5

R6/2 mice = experiment: Melatonin injection in R6/2 mouse model of HD: cytosolic mtDNA, cGAS/STING/IRF3, cytokines; format: in vivo; settings: melatonin 30 mg/kg injected daily from 6 to 9 weeks of age
Procedure: Since melatonin is protective in R6/2 mice and melatonin is deficient in humans with HD, it was evaluated whether exogenous melatonin reduces mtDNA release and consequent inflammation. Six-week old R6/2 mice were injected with melatonin daily for 3 weeks. Melatonin inhibited mtDNA release and ameliorated cGAS/STING/IRF3 upregulation in cortex and striatum in 9-week R6/2 mice (FIGS. 12D and E, and FIG. 13A).
R6/2 mice, which carry the promoter sequence and exon 1 of a mutant human HTT gene with approximately 150 CAG repeats, were obtained from JAX (Bar Harbor, ME). A colony was maintained by breeding R6/2 males with B6CBAF1 females (JAX). CAG repeat length was determined for every mouse in the colony and mice with 150 +/-10 CAG repeats were used. PCR genotyping was performed. Three, six and Nine week-old R6/2 mice were used in the experiments.
as §3
(§7) Total RNA was isolated using the RNeasy Plus kit (Qiagen) and quantified using a ND-1000 spectrophotometer. cDNA was prepared using 1000 ng total RNA by a reverse transcription PCR (RT-PCR) using a high capacity cDNA reverse transcription kit (Applied Biosystems). qPCR was performed on cDNA using SYBR Green chemistry. qPCR was performed on a Biorad CFX touch PCR using Applied Biosystems PowerUp SYBR green master mix. Fold changes in expression were calculated by the ΔΔCt method using mouse β-Actin as an endogenous control for mRNA expression. All fold changes were expressed normalized to the untreated control. […]

[11] = system: AANAT-KO differentiated N2a cells; experiment: 8-OHDG immunofluorescence (mtDNA oxidative damage) in differentiated N2a cells; format: cell-based, mouse; settings: melatonin 5 µM
Procedure: as §1

Q111 cells = experiment: ROS (Mitosox) and MMP (TMRM) in differentiated Q7 and Q111 neurons; format: cell-based, mice; settings: Q111 cells transfected with DNase 1, 2 µg/mL, LDH control
Procedure: as §2, with “melatonin. STHdh^Q7/Q7 (Q7) STHdh^Q111/Q111 (Q111) cells were grown in MEM culture medium with 10% FBS.” for “melatonin.”
as §6

[12] = system: Q7 and Q111 differentiated neurons; experiment: Immunoblot of cGAS, IRF3, STING in differentiated Q7 and Q111 neurons; format: cell-based, mice; settings: differentiated Q111 neurons transfected with DNase 1, LDH control
Procedure: as §2
as §3, with “Studio (Li-Cor). […]” for “Studio (Li-Cor).”

[13] = system: Q7 and Q111 differentiated neurons; experiment: Cytokine ELISA and mRNA qPCR in differentiated Q7 and Q111 neurons; format: cell-based, mice; settings: Q111 differentiated neurons transfected with DNase 1, LDH control
Procedure: as §2, with “melatonin. STHdh^Q7/Q7 (Q7) STHdh^Q111/Q111 (Q111) cells were grown in MEM culture medium with 10% FBS.” for “melatonin.”
as §7, with “expression.” for “expression. All fold changes were expressed normalized to the untreated control.”

Q: Which average neurite length [1] does the source give for COc1ccc2[nH]cc(CCNC(C)=O)c2c1 [melatonin, Melatonin] here?
A: rescued

Q: What about the average neurite number [1] of the same molecule?
A: rescued

Q: And the cGAS/STING/IRF3 protein levels [2]?
A: inhibited

Q: And the caspase-1 [2]?
A: inhibited

Q: And the caspase-3 activation [3]?
A: inhibited

Q: What about the “expression of PSD95 (post-synaptic marker)” value [3] of the same molecule?
A: increased

Q: What about the “expression of synaptophysin (pre-synaptic marker)” value [3] of the same molecule?
A: increased

Q: And the “inflammatory signaling pathways (Nf-kβ phosphorylation, caspase-1 cleavage, cGAS/STING/IRF3 levels)” value [3]?
A: inhibited

Q: What about the “cytosolic mtDNA (mt-CO1, mt-Dloop1, mt-Dloop3)” value [4] of the same molecule?
A: inhibited

Q: And the pro-inflammatory cytokines secretion [5]?
A: inhibited

Q: What about the mitochondrial protein import [6] of the same molecule?
A: mitigated

Q: And the proinflammatory cytokines secretion [7]?
A: inhibited

Q: What about the “MMP (JC-1 fluorescence)” value [8] of the same molecule?
A: mitigated

Q: And the “ROS (Mitosox fluorescence)” value [8]?
A: mitigated

Q: And the “MMP (TMRM fluorescence)” value [9]?
A: restored

Q: And the “mitochondrial ROS (Mitosox)” value [9]?
A: restored

Q: And the “mtDNA release (cytosolic mtDNA)” value [10]?
A: prevented

Q: What about the “expression of pro-inflammatory cytokines in brain” value (R6/2 mice) of the same molecule?
A: reduced

Q: What about the cGAS/STING/IRF3 upregulation (R6/2 mice; cortex and striatum) of the same molecule?
A: ameliorated

Q: What about the “mtDNA release (cytosolic mtDNA)” value (R6/2 mice; cortex and striatum) of the same molecule?
A: inhibited

Q: And the “mtDNA damage (8-OHDG)” value [11]?
A: mitigated

B1: DNAse1: DNAse1 protein transfected to degrade cytosolic DNA (protein, UniProt P24855 23-282, looked up)
Deoxyribonuclease-1: LKIAAFNIQTFGETKMSNATLVSYIVQILSRYDIALVQEVRDSHLTAVGKLLDNLNQDAPDTYHYVVSEPLGRNSYKERYLFVYRPDQVSAVDSYYYDDGCEPCGNDTFNREPAIVRFFSRFTEVREFAIVPLHAAPGDAVAEIDALYDVYLDVQEKWGLEDVMLMGDFNAGCSYVRPSQWSSIRLWTSPTFQWLIPDSADTTATPTHCAYDRIVVAGMLLRGAVVPDSALPFNFQAAYGLSDQLAQAISDHYPVEVMLK
Q: What does the source list for B1?
A: elevated ROS (Mitosox) (Q111 cells): did not alter; reduced MMP (TMRM) (Q111 cells): did not alter; cGAS/STING/IRF3 levels [12]: inhibited; proinflammatory cytokine secretion [13]: inhibited
